Laboratory results reported in patent publication US20150197814A1, “EGFR AND KRAS MUTATIONS” (Genentech, Inc., priority 2005, published 2015).

Experiments:
HN5 xenografts = HN5 xenografts in nude mice; cited from earlier work
A431 xenografts = A431 xenografts in nude mice; cited from earlier work
cell cycle = conditions: cited from earlier work
[1] = with paclitaxel, cisplatin, gemcitabine, and doxorubicin; cited from earlier work
[2] = test system: H1975 tumor cell line (EGFR T790M in combination with L858R); test: sensitivity of H1975 tumor cell line to treatment

SMILES: C#Cc1cccc(Nc2ncnc3cc(OCCOC)c(OCCOC)cc23)c1 [erlotinib]
- growth inhibition of xenografts (HN5 xenografts): marked growth inhibition
- growth inhibition of xenografts (A431 xenografts): marked growth inhibition
- cell cycle effect (cell cycle): cell cycle arrest at G1
- interaction with chemotherapy agents [1]: additive interaction
- response of tumor cell line to treatment [2]: resistance
